Two substances from patent US20250304700A1, “ANTI-BLOOD DENDRITIC CELL ANTIGEN 2 ANTIBODIES AND USES THEREOF” (Biogen MA Inc., priority 2012, published 2025) can be followed below.

One data set has as its target T1, surface human BDCA2 (Homo sapiens, UniProt Q8WTT0).
T1 construct: stably transfected DG44 CHO cells co-expressing full-length BDCA2 and FcεRIγcDNAs (human or cynomolgus monkey); expressed in transfected cells
T1 sequence (Q8WTT0 1-213): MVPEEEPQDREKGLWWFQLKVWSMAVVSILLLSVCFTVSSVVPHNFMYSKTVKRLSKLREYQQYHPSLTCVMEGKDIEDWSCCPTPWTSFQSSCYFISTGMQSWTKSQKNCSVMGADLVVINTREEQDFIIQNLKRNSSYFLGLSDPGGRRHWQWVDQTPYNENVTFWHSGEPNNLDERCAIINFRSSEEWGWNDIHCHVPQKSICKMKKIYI
T1 sequence (P30273 19-86 partner): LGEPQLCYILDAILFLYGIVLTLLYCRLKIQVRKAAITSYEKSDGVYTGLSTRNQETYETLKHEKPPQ
The data set is described as follows: Direct binding dilution titration FACS on surface human BDCA2. The conditions noted are these: transfected cells co-expressing BDCA2 and FcεRIγ. The method, then: Expression vectors (ch24F4 heavy chain vectors pYL670 or pYL672 and ch24F4 light chain vector pYL671) were co-transfected into 293-EBNA cells and transfected cells were tested for antibody secretion and specificity (empty vector- and a molecularly cloned irrelevant mAb vector-transfected cells served as controls). […] Direct FACS binding to surface human BDCA2 confirmed the specificity of ch24F4. The EC50 binding of both variants of ch24F4 was equivalent to that of the murine 24F4 mAb by direct binding to surface expressed human BDCA2 by dilution titration FACS assay. Stable CHO cell lines secreting ch24F4-huIgG1, kappa mAb and agly ch24F4-huIgG4/G1 hybrid kappa mAb were produced by co-transfection with pYL672/pYL671 and pYL670/pYL671, respectively.
Site-directed mutagenesis was performed using Agilent's QuikChange II mutagenesis kit following the manufacturer's recommended protocol. The C95S variant was constructed using the mutagenic primer 5′ GCAACCTATTACTGTCAACAAAGTAATGAGGATCCTCGGAC 3′ (SEQ ID NO: 38) and its reverse complement, which introduced a new HincII site, producing plasmid pEAG2678. The C95T variant was constructed using the mutagenic primer 5′ CAACCTATTACTGTCAGCAAACTAATGAAGATCCTCGGACGTTCG 3′ (SEQ ID NO: 39) and its reverse complement, which removed a BamHI site, producing plasmid pEAG2679. […]

Data set [1] has as its system bulk polyclonal human IgG. The data set is described as follows: Cross-interaction chromatography (CIC). The format is physicochemical. An excerpt: Cross-interaction chromatography (CIC) is a high throughput method for preliminary assessment of the stickiness of mAb candidates (Jacobs et al., Pharm Res., 27 (1): 65-71 (2010)). In this method, bulk polyclonal human IgG is chemically coupled to an NHS-activated chromatography resin.

Data set [2] relates to cell surface BDCA2 on pDCs. The data set is described as follows: BIIB059 titration in cynomolgus whole blood, anti-human IgG PE detection. In kind it is binding, cynomolgus monkey. The conditions noted are these: all cynomolgus monkeys. The method, then:
The maximal values were taken from the values at the plateau in each assay (FIGS. 24 and 25).
Whole blood was drawn from twelve cynomolgus monkeys, once a week for three weeks total. […] MFI of PE was calculated with FlowJo software, and EC50 curves were generated in GraphPad Prism software.

The subject of a further data set is surface rat Clec4b2. Description: Direct FACS binding to surface rat Clec4b2. The conditions noted are these: 293E cells co-transfected with rat Clec4b2/FcεRIγ. The text has this:
To determine whether the lead hu24F4 H4/L1 C95A mAb was capable of binding to surface rat Clec4b2, 293E cells were transiently co-transfected with an EGFP reporter expression vector (pEAG1458) and either human BDCA2/FcεRIγ vectors (pEAG2420 and pEAG2413) or rat Clec4b2/FcεRIγ vectors (pCN834 and pCN844) at 1:1:1 molar ratios. At 3 days post-transfection cells were harvested and stained with the lead hu24F4 H4/L1 C95A mAb in a dilution titration direct FACS binding assay, gating on live EGFP-positive cells.
(In general: In flow cytometry, cells or beads pass a laser one at a time.)

A further data set concerns circulating pDCs. Description: Circulating pDC frequency after dosing cynomolgus monkeys. In kind it is in vivo, cynomolgus monkey. The text has this: Nine of these twelve cynomolgus monkeys were divided into 3 groups (3/group), and randomized to include equal representation of BDCA2 density and percent pDC in each group. […] Flow cytometry was used to identify circulating pDCs in the whole blood as CD20-CD14-CD123+HLA-DR+, and the pDC frequency (on log-scale) at each time point was graphed in R software (FIG. 54). A linear mixed effects model was fitted to log (pDC) frequencies using random intercepts for cynomolgus monkeys and fixed effects for dose group and time period: 1 hour, 6 hours, 1-27 days, and greater than 28 days. To assess whether pDC changed among different dose groups at different time periods, a preliminary model also included the interaction terms for dose group and different time periods.
The pDC frequency (on log-scale) at each time point was graphed in R software (FIG. 56). A linear mixed effects model was fitted, using continuous time and time at 1 hour as fixed factors, and cynomolgus monkeys as random intercepts.

Data set [3] relates to CD32a on the surface of pDCs. Description: CD32 surface expression on isolated pDCs. In kind it is cell-based, human. The text has this: Treatment with effector competent isotype control had no effect on CD32 surface levels (FIG. 46).
CD40 is a cell surface protein expressed on pDCs. An anti-CD40 antibody with a fully functional Fc has the ability to engage CD40 and bind CD32 on the surface of pDCs.

cell surface BDCA2 on pDCs, sequence (as listed by the source): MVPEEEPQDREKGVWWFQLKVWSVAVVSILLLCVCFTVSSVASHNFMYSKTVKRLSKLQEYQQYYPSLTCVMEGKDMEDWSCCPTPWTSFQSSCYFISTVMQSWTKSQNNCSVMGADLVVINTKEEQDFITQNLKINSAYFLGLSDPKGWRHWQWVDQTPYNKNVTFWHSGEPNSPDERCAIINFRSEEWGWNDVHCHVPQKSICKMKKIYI
surface rat Clec4b2, sequence (as listed by the source): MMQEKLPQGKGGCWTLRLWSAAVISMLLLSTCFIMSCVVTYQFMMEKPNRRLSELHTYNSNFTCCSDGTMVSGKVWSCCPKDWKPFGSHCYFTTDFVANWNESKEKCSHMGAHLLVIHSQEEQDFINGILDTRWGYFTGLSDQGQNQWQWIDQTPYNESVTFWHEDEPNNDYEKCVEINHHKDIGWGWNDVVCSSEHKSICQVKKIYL
surface rat Clec4b2, sequence (P20411 19-86 partner): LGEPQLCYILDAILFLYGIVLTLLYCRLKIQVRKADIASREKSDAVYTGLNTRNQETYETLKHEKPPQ

As for “24F4S: hu24F4 H4/L1 with C95S light chain; differs from BIIB059 by 1 amino acid residue”, in the data set with surface human BDCA2, the “direct binding to surface human BDCA2, in words” value was ““best” variants”. Moreover, in data set [1] (CIC data table), the Solubility result was “good”. In data set [1] (IgG-derivatized column), this substance displayed a Rt-Test of 9.3. In addition, the “K′” value in data set [1] (higher K′ values may indicate lower solubility) is listed as 0.022. Also, the Rt-Blank in data set [1] (non-derivatized column) is on record as 9.1.

In the case of “BIIB059: humanized IgG1 anti-BDCA2 antibody, mature heavy chain SEQ ID NO: 4 and mature light chain SEQ ID NO: 3”, the “concentration that saturates BDCA2 receptor binding” value in data set [2] stood at 10 µg/mL. The “binding to surface rat Clec4b2” value with surface rat Clec4b2 is “no binding to surface rat Clec4b2 was detected”. The “effect est., log % circulating pDC” value in the data set with circulating pDCs (Group: BIIB059 1 mg/kg IV v. vehicle) is listed as 0.49; in the data set on circulating pDCs (SC 0.2 mg/kg, time (continuous)), 0.01; in the data set on circulating pDCs (SC 0.2 mg/kg, time: 1 hr v. others), −0.78. Besides, the “depletion of pDCs in the blood, in words” value in the data set with circulating pDCs (tested doses) is given as “does not mediate a sustained depletion of pDCs”. Further, in data set [3] (10 μg/mL, 1 hour at 4° C.), the “CD32 MFI” value is recorded as “did not decrease the CD32 MFI”. Also, the “CD32 on the cell surface of pDCs” value in data set [3] (16 hours at 37° C.) is on record as “able to induce the down-modulation of CD32”.
